Data taken from ChEMBL document CHEMBL6178009, “Targeted Degradation of BCL6 Using Novel Bifunctional Degraders: A New Therapeutic Strategy for BCL6-Positive Cancers” (ACS Med Chem Lett, 2025).

molecular target: Protein cereblon/B-cell lymphoma 6 protein (Homo sapiens, UniProt P41182+Q96SW2); test: PROTAC activity at CRBN/N-terminal HiBit-tagged BCL6 in human HT-1080 cells transfected with pLV-UBC-N-HiBiT- BCL6-PGK-puro assessed as degradation of BCL6 incubated for 5 hrs by luminescence based NANO-Glo HIBiT lytic detection assay; type: cell-based

SMILES	EC50 [µM]
CNC(=O)COc1cc2cc(Nc3nc(N4CCC5(CC4)CCN([C@H](C)C4CCN(c6ccc7c(C8CCC(=O)NC8=O)nn(C)c7c6)CC4)CC5)ncc3Cl)cnc2n(C)c1=O (some centres not stated)	≤ 0.025
CNC(=O)COc1cc2cc(Nc3nc(N4CCC5(CCN(CC6CCN(c7cc8c(cc7F)c(C7CCC(=O)NC7=O)nn8C)CC6)CC5)CC4)ncc3Cl)cnc2n(C)c1=O (configuration not stated)	≤ 0.025
CNC(=O)COc1cc2cc(Nc3nc(N4CCN(CC5CCN(c6cccc7c(C8CCC(=O)NC8=O)nn(C)c67)CC5)CC4)ncc3Cl)cc3c2n(c1=O)CCO3 (configuration not stated)	≤ 0.025
CNC(=O)COc1cc2cc(Nc3nc(N4CCN(CC5CCN(c6ccc7c(C8CCC(=O)NC8=O)nn(C)c7c6)CC5(F)F)C(C)C4)ncc3Cl)cnc2n(C(C)C)c1=O (configuration not stated)	≤ 0.025
CNC(=O)COc1cc2cc(Nc3nc(N4CC[C@@H](CN5CCN(c6cccc7c(C8CCC(=O)NC8=O)nn(C)c67)CC5)[C@@H](C)C4)ncc3Cl)cc3c2n(c1=O)CCO3 (some centres not stated)	≤ 0.025
CNC(=O)COc1cc2cc(Nc3nc(N4CCC(CN5CCC(c6ccc7c(C8CCC(=O)NC8=O)nn(C)c7c6F)CC5)CC4)ncc3Cl)cc3c2n(c1=O)[C@@H](C)CO3 (some centres not stated)	≤ 0.025

molecular target: Protein cereblon/B-cell lymphoma 6 protein (Homo sapiens) (UniProt Q96SW2+P41182); test: PROTAC activity at CRBN/N-terminal HiBit-tagged BCL6 in human HT-1080 cells transfected with pLV-UBC-N-HiBiT- BCL6-PGK-puro assessed as degradation of BCL6 by measuring ratio of trough concentration of protein in cell compared to the concentration of protein before the cell contact with compound (Ymin) incubated for 5 hrs by luminescence based NANO-Glo HIBiT lytic detection assay relative to control

SMILES	Emin [%]
CNC(=O)COc1cc2cc(Nc3nc(N4CCC5(CC4)CCN([C@H](C)C4CCN(c6ccc7c(C8CCC(=O)NC8=O)nn(C)c7c6)CC4)CC5)ncc3Cl)cnc2n(C)c1=O (some centres not stated)	< 30
CNC(=O)COc1cc2cc(Nc3nc(N4CCC5(CCN(CC6CCN(c7cc8c(cc7F)c(C7CCC(=O)NC7=O)nn8C)CC6)CC5)CC4)ncc3Cl)cnc2n(C)c1=O (configuration not stated)	< 30
CNC(=O)COc1cc2cc(Nc3nc(N4CCN(CC5CCN(c6cccc7c(C8CCC(=O)NC8=O)nn(C)c67)CC5)CC4)ncc3Cl)cc3c2n(c1=O)CCO3 (configuration not stated)	< 30
CNC(=O)COc1cc2cc(Nc3nc(N4CCN(CC5CCN(c6ccc7c(C8CCC(=O)NC8=O)nn(C)c7c6)CC5(F)F)C(C)C4)ncc3Cl)cnc2n(C(C)C)c1=O (configuration not stated)	30
CNC(=O)COc1cc2cc(Nc3nc(N4CC[C@@H](CN5CCN(c6cccc7c(C8CCC(=O)NC8=O)nn(C)c67)CC5)[C@@H](C)C4)ncc3Cl)cc3c2n(c1=O)CCO3 (some centres not stated)	< 30
CNC(=O)COc1cc2cc(Nc3nc(N4CCC(CN5CCC(c6ccc7c(C8CCC(=O)NC8=O)nn(C)c7c6F)CC5)CC4)ncc3Cl)cc3c2n(c1=O)[C@@H](C)CO3 (some centres not stated)	< 30
